Consider 19 compounds from ChEMBL document CHEMBL1135144, “N-(pyrimidin-4-yl) and N-(pyridin-2-yl) phenylalanine derivatives as VLA-4 integrin antagonists” (Bioorg Med Chem Lett, 2002).

The series is described as follows: Compound was evaluated for rate of clearance in IPRL (Isolated Perfused Rat Liver). The format is ADME.

Molecules are shown by their SMILES.

In turn, `CCCS(=O)(=O)c1nc(C)cc(N[C@@H](Cc2ccc(NC(=O)c3c(Cl)cncc3Cl)cc2)C(=O)O)n1` gave a k el of 0.00181 s⁻¹. Compound `CS(=O)(=O)c1cc(N[C@@H](Cc2ccc(NC(=O)c3c(Cl)cncc3Cl)cc2)C(=O)O)ncn1` gave a k el of 0.00111 s⁻¹. Under `CC(C)CS(=O)(=O)c1nc(N[C@@H](Cc2ccc(NC(=O)c3c(Cl)cncc3Cl)cc2)C(=O)O)cc(C(=O)O)n1` stands 0.00164 s⁻¹.

Take `CCCS(=O)(=O)c1nc(N[C@@H](Cc2ccc(NC(=O)c3c(Cl)cncc3Cl)cc2)C(=O)O)cc(C(=O)O)n1`: the k el was 0.00025 s⁻¹. Compound `CCCS(=O)(=O)c1cc(NC(Cc2ccc(NC(=O)c3c(Cl)cncc3Cl)cc2)C(=O)O)ncc1C(=O)O` (centres undefined) showed a k el of 5.56e-05 s⁻¹.

Compound `CCCS(=O)(=O)c1cc(NC(Cc2ccc(NC(=O)c3c(Cl)cncc3Cl)cc2)C(=O)O)ncc1Cl` (centres undefined) gave a k el of 0.000583 s⁻¹. With `CCC[S+]([O-])c1cc(NC(Cc2ccc(NC(=O)c3c(Cl)cncc3Cl)cc2)C(=O)O)ncc1Cl` (centres undefined), the k el was 0.00128 s⁻¹. Under `O=C(Nc1ccc(CC(Nc2ccc(Cl)cn2)C(=O)O)cc1)c1c(Cl)cncc1Cl` (centres undefined) stands 5.56e-05 s⁻¹; under `O=C(Nc1ccc(C[C@H](Nc2cc(Cc3ccccc3)ncn2)C(=O)O)cc1)c1c(Cl)cncc1Cl`, 0.00178 s⁻¹; under `CCCS(=O)(=O)c1nc(N[C@@H](Cc2ccc(NC(=O)c3c(Cl)cncc3Cl)cc2)C(=O)O)cc(OC)n1`, 0.00156 s⁻¹. Under `CSc1ncc(C(=O)O)c(N[C@@H](Cc2ccc(NC(=O)c3c(Cl)cncc3Cl)cc2)C(=O)O)n1` stands 0.000361 s⁻¹; under `CCCS(=O)(=O)c1cc(N[C@@H](Cc2ccc(NC(=O)c3c(Cl)cncc3Cl)cc2)C(=O)O)ncn1`, 0.00122 s⁻¹; under `O=C(Nc1ccc(C[C@H](Nc2cc(S(=O)(=O)Cc3ccccc3)ncn2)C(=O)O)cc1)c1c(Cl)cncc1Cl`, 0.00144 s⁻¹. As to `CCCS(=O)(=O)c1ccnc(NC(Cc2ccc(NC(=O)c3c(Cl)cncc3Cl)cc2)C(=O)O)c1` (centres undefined), the k el was 0.00144 s⁻¹. `CCCS(=O)(=O)c1nccc(N[C@@H](Cc2ccc(NC(=O)c3c(Cl)cncc3Cl)cc2)C(=O)O)n1`: the k el is 0.00122 s⁻¹. With `COc1cc(N[C@@H](Cc2ccc(NC(=O)c3c(Cl)cncc3Cl)cc2)C(=O)O)nc(S(C)(=O)=O)n1` the figure was 0.00136 s⁻¹; with `CCC[S+]([O-])c1cc(N[C@@H](Cc2ccc(NC(=O)c3c(Cl)cncc3Cl)cc2)C(=O)O)ncn1` (some centres undefined), 0.00119 s⁻¹.

In turn, `CCCCCCS(=O)(=O)c1nc(N[C@@H](Cc2ccc(NC(=O)c3c(Cl)cncc3Cl)cc2)C(=O)O)cc(C(=O)O)n1` had a k el of 0.000861 s⁻¹.

The compound `O=C(Nc1ccc(C[C@H](Nc2cc(Oc3ccccc3)ncn2)C(=O)O)cc1)c1c(Cl)cncc1Cl` had a k el of 0.000861 s⁻¹.
